Tests used:
[1] = Inhibition of Penicillium decumbens alpha-L-rhamnosidase using p-nitrophenyl-glycoside as substrate by spectrophotometric method
[2] = target: T1, Uncharacterized protein (Sus scrofa) (UniProt I3LIR5); assay: Inhibition of porcine kidney trehalase assessed as D-glucose level at 1000 uM using maltose as substrate measured after 10 to 30 mins
T1 sequence (whole entry): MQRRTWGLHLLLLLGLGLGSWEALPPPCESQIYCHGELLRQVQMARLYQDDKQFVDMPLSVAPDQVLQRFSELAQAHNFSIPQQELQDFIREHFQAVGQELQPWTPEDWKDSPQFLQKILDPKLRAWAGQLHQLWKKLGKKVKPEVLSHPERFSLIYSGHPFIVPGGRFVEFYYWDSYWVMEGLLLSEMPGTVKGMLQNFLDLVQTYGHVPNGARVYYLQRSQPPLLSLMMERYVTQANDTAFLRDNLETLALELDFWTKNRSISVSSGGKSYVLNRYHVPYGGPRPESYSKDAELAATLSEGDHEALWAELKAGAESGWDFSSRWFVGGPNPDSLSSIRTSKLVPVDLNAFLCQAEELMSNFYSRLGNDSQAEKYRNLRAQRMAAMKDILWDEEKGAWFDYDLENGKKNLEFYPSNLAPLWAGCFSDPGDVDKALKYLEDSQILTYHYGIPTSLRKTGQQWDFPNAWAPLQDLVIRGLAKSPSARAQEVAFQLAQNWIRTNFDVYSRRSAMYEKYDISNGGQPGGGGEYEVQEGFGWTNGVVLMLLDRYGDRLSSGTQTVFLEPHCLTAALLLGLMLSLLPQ

Prunus dulcis [3] = assay: Inhibition of almond beta-glucosidase at 1000 uM using p-nitrophenyl-glycoside as substrate by spectrophotometric method
[4] = Inhibition of bovine liver beta-glucosidase using p-nitrophenyl-glycoside as substrate by spectrophotometric method; set-up: species or system Bos taurus
Rattus norvegicus [5] = species: Rattus norvegicus; assay: Inhibition of rat intestinal maltase assessed as D-glucose level at 1000 uM using maltose as substrate measured after 10 to 30 mins
[6] = Inhibition of human lysosomal beta-glucosidase using 4-methylumbelliferyl-beta-D-glucopyranoside as substrate preincubated for 45 mins followed by substrate addition measured after 30 mins by fluorescence spectrophotometric method
Oryza sativa [7] = assay: Inhibition of rice alpha-glucosidase at 1000 uM using p-nitrophenyl-glycoside as substrate by spectrophotometric method
Beta-galactosidase = target: T2, Beta-galactosidase (Bos taurus, UniProt Q58D55); assay: Inhibition of bovine liver beta-galactosidase using p-nitrophenyl-glycoside as substrate by spectrophotometric method
T2 sequence (Q58D55 whole entry): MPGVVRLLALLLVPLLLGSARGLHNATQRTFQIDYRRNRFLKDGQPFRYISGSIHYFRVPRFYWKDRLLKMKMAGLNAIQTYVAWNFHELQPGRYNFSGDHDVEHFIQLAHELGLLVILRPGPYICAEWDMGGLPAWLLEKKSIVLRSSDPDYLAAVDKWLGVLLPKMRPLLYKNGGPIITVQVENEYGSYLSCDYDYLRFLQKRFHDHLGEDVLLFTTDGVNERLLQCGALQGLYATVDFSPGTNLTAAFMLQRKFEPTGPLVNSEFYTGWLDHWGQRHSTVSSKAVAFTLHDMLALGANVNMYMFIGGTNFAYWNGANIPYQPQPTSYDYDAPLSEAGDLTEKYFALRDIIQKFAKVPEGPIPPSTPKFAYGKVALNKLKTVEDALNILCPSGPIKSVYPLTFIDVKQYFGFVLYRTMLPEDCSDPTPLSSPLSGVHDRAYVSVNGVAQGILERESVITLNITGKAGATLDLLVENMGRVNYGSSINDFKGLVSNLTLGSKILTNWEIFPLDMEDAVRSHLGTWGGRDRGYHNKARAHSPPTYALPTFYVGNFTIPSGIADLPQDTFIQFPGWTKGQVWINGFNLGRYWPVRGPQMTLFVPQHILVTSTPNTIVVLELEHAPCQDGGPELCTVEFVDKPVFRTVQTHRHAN

[8] = target: T3, Tissue alpha-L-fucosidase (Bos taurus) (UniProt Q2KIM0); assay: Inhibition of bovine kidney alpha-L-fucosidase at 1000 uM using p-nitrophenyl-glycoside as substrate by spectrophotometric method
T3 sequence (whole entry): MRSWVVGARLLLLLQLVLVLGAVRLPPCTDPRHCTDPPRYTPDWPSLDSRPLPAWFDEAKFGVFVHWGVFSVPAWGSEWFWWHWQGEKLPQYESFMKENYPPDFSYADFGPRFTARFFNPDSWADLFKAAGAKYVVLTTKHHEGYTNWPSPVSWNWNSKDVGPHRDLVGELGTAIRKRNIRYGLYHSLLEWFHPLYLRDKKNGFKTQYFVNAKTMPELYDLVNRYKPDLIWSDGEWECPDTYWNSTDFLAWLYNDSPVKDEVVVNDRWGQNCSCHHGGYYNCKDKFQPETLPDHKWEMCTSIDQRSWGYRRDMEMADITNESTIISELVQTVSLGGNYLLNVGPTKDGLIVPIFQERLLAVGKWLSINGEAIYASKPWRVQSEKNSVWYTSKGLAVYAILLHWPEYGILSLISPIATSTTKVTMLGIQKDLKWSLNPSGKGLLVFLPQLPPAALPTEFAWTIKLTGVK

Escherichia coli [9] = assay: Inhibition of Escherichia coli beta-glucuronidase at 1000 uM using p-nitrophenyl-glycoside as substrate by spectrophotometric method
Aspergillus niger [10] = assay: Inhibition of Aspergillus niger amyloglucosidase assessed as D-glucose level at 1000 uM using maltose as substrate measured after 10 to 30 mins
Penicillium decumbens = assay: Inhibition of Penicillium decumbens alpha-L-rhamnosidase at 1000 uM using p-nitrophenyl-glycoside as substrate by spectrophotometric method
[11] = Inhibition of Penicillium decumbens alpha-L-rhamnosidase
Homo sapiens [12] = species: Homo sapiens; assay: Inhibition of human lysosomal beta-glucosidase at 1000 uM using 4-methylumbelliferyl-beta-D-glucopyranoside as substrate preincubated for 45 mins followed by substrate addition measured after 30 mins by fluorescence spectrophotometric method
Bos taurus [13] = species: Bos taurus; assay: Inhibition of bovine liver beta-glucosidase at 1000 uM using p-nitrophenyl-glycoside as substrate by spectrophotometric method
[14] = target: T4, Beta-galactosidase (Bos taurus) (UniProt Q58D55); assay: Inhibition of bovine liver beta-galactosidase at 1000 uM using p-nitrophenyl-glycoside as substrate by spectrophotometric method
T4 sequence (whole entry): T2 sequence (Q58D55 whole entry)

Oryza sativa [15] = assay: Inhibition of rice alpha-glucosidase at 100 uM using p-nitrophenyl-glycoside as substrate by spectrophotometric method
Aspergillus niger [16] = assay: Inhibition of Aspergillus niger amyloglucosidase assessed as D-glucose level at 100 uM using maltose as substrate measured after 10 to 30 mins
Bos taurus [17] = species: Bos taurus; assay: Inhibition of bovine liver beta-glucosidase at 100 uM using p-nitrophenyl-glycoside as substrate by spectrophotometric method
Rattus norvegicus [18] = species: Rattus norvegicus; assay: Inhibition of rat intestinal maltase assessed as D-glucose level at 100 uM using maltose as substrate measured after 10 to 30 mins
[19] = target: T1, Uncharacterized protein (Sus scrofa); assay: Inhibition of porcine kidney trehalase assessed as D-glucose level at 100 uM using maltose as substrate measured after 10 to 30 mins
Homo sapiens [20] = species: Homo sapiens; assay: Inhibition of human lysosomal beta-glucosidase at 100 uM using 4-methylumbelliferyl-beta-D-glucopyranoside as substrate preincubated for 45 mins followed by substrate addition measured after 30 mins by fluorescence spectrophotometric method
Prunus dulcis [21] = assay: Inhibition of almond beta-glucosidase at 100 uM using p-nitrophenyl-glycoside as substrate by spectrophotometric method
[22] = target: T3, Tissue alpha-L-fucosidase (Bos taurus); assay: Inhibition of bovine kidney alpha-L-fucosidase at 100 uM using p-nitrophenyl-glycoside as substrate by spectrophotometric method
Escherichia coli [23] = assay: Inhibition of Escherichia coli beta-glucuronidase at 100 uM using p-nitrophenyl-glycoside as substrate by spectrophotometric method

| Compound | IC50 [1] [µM] | inhibition [2] [%] | inhibition (Prunus dulcis [3]) [%] | inhibition (Rattus norvegicus [5]) [%] | inhibition (Oryza sativa [7]) [%] | IC50 (Beta-galactosidase) [µM] | inhibition [8] [%] | inhibition (Escherichia coli [9]) [%] | inhibition (Aspergillus niger [10]) [%] | inhibition (Penicillium decumbens) [%] | other results |
| --- | --- | --- | --- | --- | --- | --- | --- | --- | --- | --- | --- |
| Cc1ccc(C/N=C2/SC[C@H]3[C@H](O)[C@@H](O)[C@H](CO)N23)cc1 | 1.2 | – | – | – | – | – | – | – | – | – | – |
| COc1ccc(C[C@@H]2NC[C@H](O)[C@H]2O)cc1 | – | – | – | – | – | – | – | – | – | – | IC50 [11]: 3.7 µM |
| CCCCCCNC(=S)N1[C@@H](CO)[C@H](O)[C@@H](O)[C@@H]1CO | – | < 50 | < 50 | < 50 | < 50 | 572 | < 50 | < 50 | < 50 | < 50 | inhibition (Homo sapiens [12]): < 50%; inhibition (Bos taurus [13]): < 50% |
| OC[C@H]1[C@H](O)[C@@H](O)[C@@H]2CS/C(=N/Cc3ccc(F)cc3)N12 | 1.8 | – | – | – | – | – | – | – | – | – | – |
| C[C@@H]1C[C@H](O)[C@H]2[C@@H](O)[C@@H](O)CN2C1 | – | – | – | – | – | – | – | – | – | – | IC50 [11]: 0.032 to 0.034 µM |

More lines, main results first:

| IC50 [1] [µM] | inhibition [2] [%] | inhibition (Prunus dulcis [3]) [%] | inhibition (Rattus norvegicus [5]) [%] | inhibition (Oryza sativa [7]) [%] | IC50 (Beta-galactosidase) [µM] | inhibition [8] [%] | inhibition (Escherichia coli [9]) [%] | inhibition (Aspergillus niger [10]) [%] | inhibition (Penicillium decumbens) [%] | Compound | other results |
| --- | --- | --- | --- | --- | --- | --- | --- | --- | --- | --- | --- |
| – | < 50 | < 50 | < 50 | < 50 | 414 | < 50 | < 50 | < 50 | < 50 | CCCCCCCCNC(=S)N1[C@H](CO)[C@@H](O)[C@H](O)[C@H]1CO | IC50 [4]: 689 µM; IC50 [6]: 12 µM |
| 0.8 | – | – | – | – | – | – | – | – | – | OC[C@H]1[C@H](O)[C@@H](O)[C@@H]2CS/C(=N/Cc3ccc(Cl)cc3Cl)N12 | – |
| 0.45 | – | – | – | – | – | – | – | – | – | OC[C@H]1[C@H](O)[C@@H](O)[C@@H]2CS/C(=N/Cc3cc(Cl)c(Cl)c(Cl)c3)N12 | – |
| 494 | < 50 | < 50 | < 50 | < 50 | – | < 50 | < 50 | < 50 | – | CCCCCC/N=C1/SC[C@@H]2[C@@H](O)[C@H](O)[C@@H](CO)N12 | inhibition (Bos taurus [13]): < 50%; IC50 [6]: 16 µM; inhibition [14]: < 50% |
| 0.77 | – | – | – | – | 36 | – | – | – | – | CCCCCCCCCC/N=C1/SC[C@H]2[C@H](O)[C@@H](O)[C@H](CO)N12 | inhibition (Oryza sativa [15]): < 50%; inhibition (Aspergillus niger [16]): < 50%; inhibition (Bos taurus [17]): < 50%; inhibition (Rattus norvegicus [18]): < 50%; inhibition [19]: < 50%; inhibition (Homo sapiens [20]): < 50%; inhibition (Prunus dulcis [21]): < 50%; inhibition [22]: < 50%; inhibition (Escherichia coli [23]): < 50% |
| 0.89 | – | – | – | – | – | – | – | – | – | OC[C@H]1[C@H](O)[C@@H](O)[C@@H]2CS/C(=N/Cc3ccc(Cl)cc3)N12 | – |
| – | < 50 | < 50 | < 50 | < 50 | 1000 | < 50 | < 50 | < 50 | < 50 | CCCCCCNC(=S)N1[C@H](CO)[C@@H](O)[C@H](O)[C@H]1CO | inhibition (Homo sapiens [12]): < 50%; inhibition (Bos taurus [13]): < 50% |
| – | – | – | – | – | – | – | – | – | 9.3 | OC[C@H]1[C@@H](O)[C@H](O)[C@@H]2CS/C(=N/Cc3ccc(Cl)c(Cl)c3)N12 | – |
